Experimental data reported in PubChem BioAssay AID1963869 (Molecular Pharmacology Branch, DTP, NCI, 2024).

System: KRAS patient-derived spheroids with HUVEC/MSC, viability
Assay: Anticancer human tumor 323965-272-R-J2-PDC patient-derived pancreatic carcinoma cell line growth inhibition [KRAS2]
Details: for IC50: curve of first compound; for viability, T/C: stronger effect = lower value
Outline: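 KRAS-mutant tumor cells were grown as spheroids with HUVEC endothelial cells and human MSCs as stroma. Targeted agents were tested alone and with KRAS pathway inhibitors. Doses started at or near clinical Cmax, or 10 microM, descending half-log.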

[1] = second compound 0.1 µM, first compound 0.0316 µM
[2] = second compound 0.1 µM, first compound 0.1 µM
[3] = second compound 0.1 µM, first compound 0.316 µM
[4] = second compound 0.1 µM, first compound 1 µM
[5] = second compound 0.1 µM, first compound 3.16 µM
[6] = second compound 0.1 µM, first compound 10 µM
[7] = second compound 0.316 µM, first compound 0.0316 µM
[8] = second compound 0.316 µM, first compound 0.1 µM
[9] = second compound 0.316 µM, first compound 0.316 µM
[10] = second compound 0.316 µM, first compound 1 µM
[11] = second compound 0.316 µM, first compound 3.16 µM
[12] = second compound 0.316 µM, first compound 10 µM
[13] = second compound 1 µM, first compound 0.0316 µM
[14] = second compound 1 µM, first compound 0.1 µM
[15] = second compound 1 µM, first compound 0.316 µM
[16] = second compound 1 µM, first compound 1 µM
[17] = second compound 1 µM, first compound 3.16 µM
[18] = second compound 1 µM, first compound 10 µM
[19] = second compound 3.16 µM, first compound 0.0316 µM
[20] = second compound 3.16 µM, first compound 0.1 µM
[21] = second compound 3.16 µM, first compound 0.316 µM
[22] = second compound 3.16 µM, first compound 1 µM
[23] = second compound 3.16 µM, first compound 3.16 µM
[24] = second compound 3.16 µM, first compound 10 µM
[25] = second compound 10 µM, first compound 0.0316 µM
[26] = second compound 10 µM, first compound 0.1 µM
[27] = second compound 10 µM, first compound 0.316 µM
[28] = second compound 10 µM, first compound 1 µM
[29] = second compound 10 µM, first compound 3.16 µM
[30] = second compound 10 µM, first compound 10 µM
[31] = second compound 0.1 µM, first compound 0.00316 µM
[32] = second compound 0.1 µM, first compound 0.01 µM
[33] = second compound 0.316 µM, first compound 0.00316 µM
[34] = second compound 0.316 µM, first compound 0.01 µM
[35] = second compound 1 µM, first compound 0.00316 µM
[36] = second compound 1 µM, first compound 0.01 µM
[37] = second compound 3.16 µM, first compound 0.00316 µM
[38] = second compound 3.16 µM, first compound 0.01 µM
[39] = second compound 10 µM, first compound 0.00316 µM
[40] = second compound 10 µM, first compound 0.01 µM
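Note: spheroids exposed to agents for 7 days.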
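Throughout, for viability, T/C: 100% = DMSO vehicle control viability.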

Row | Compound | IC50 (second compound 0.1 µM) [nM] | IC50 (second compound 0.316 µM) [nM] | IC50 (second compound 1 µM) [nM] | IC50 (second compound 3.16 µM) [nM] | IC50 (second compound 10 µM) [nM] | viability, T/C [1] [%] | viability, T/C [2] [%] | viability, T/C [3] [%] | viability, T/C [4] [%] | viability, T/C [7] [%] | viability, T/C [8] [%] | viability, T/C [9] [%] | viability, T/C [10] [%] | viability, T/C [13] [%] | viability, T/C [14] [%] | viability, T/C [15] [%] | viability, T/C [19] [%] | viability, T/C [20] [%] | viability, T/C [25] [%] | viability, T/C [26] [%] | also measured
1 | CC(C)NCC(C(=O)N1CCN(c2ncnc3c2C(C)CC3O)CC1)c1ccc(Cl)cc1 (stereo not given) + CNCc1ccccc1-c1csc(C(C)Nc2nc(C)nc3cc(OC)c(OC)cc23)c1 | 1570 | 1060 | 1330 | 532 | < 31.6 | 90.9 | 85.4 | 70.6 | 55.8 | 94.2 | 85.2 | 72.9 | 48.1 | 94.9 | 91.8 | 79.9 | 88.3 | 73.2 | 0.27 | 0.28 | viability, T/C [5]: 41.7%; viability, T/C [6]: 36%; viability, T/C [11]: 41.4%; viability, T/C [12]: 33%; viability, T/C [16]: 54.4%; viability, T/C [17]: 36.7%; viability, T/C [18]: 32.9%; viability, T/C [21]: 58.5%; viability, T/C [22]: 43%; viability, T/C [23]: 21.5%; viability, T/C [24]: 18%; viability, T/C [27]: 0.23%; viability, T/C [28]: 0.59%; viability, T/C [29]: 0.71%; viability, T/C [30]: 0.19%
2 | CC(C)n1nc(-c2ccc3oc(N)nc3c2)c2c(N)ncnc21 + CNCc1ccccc1-c1csc(C(C)Nc2nc(C)nc3cc(OC)c(OC)cc23)c1 | 2.12 | 2 | 2.72 | 2.45 | < 0.316 | 22.7 | 17.9 |  |  | 19.3 | 16.8 |  |  | 19.1 | 15.6 |  | 9.29 | 9.2 | 0.12 | 0.35 | viability, T/C (second compound 0.1 µM, first compound 0.000316 µM): 84.4%; viability, T/C (second compound 0.1 µM, first compound 0.001 µM): 58.7%; viability, T/C [31]: 47.6%; viability, T/C [32]: 30.1%; viability, T/C (second compound 0.316 µM, first compound 0.000316 µM): 78.2%; viability, T/C (second compound 0.316 µM, first compound 0.001 µM): 60.8%; viability, T/C [33]: 43.1%; viability, T/C [34]: 28.2%; viability, T/C (second compound 1 µM, first compound 0.000316 µM): 80.6%; viability, T/C (second compound 1 µM, first compound 0.001 µM): 71.5%; viability, T/C [35]: 44.6%; viability, T/C [36]: 29.8%; viability, T/C (second compound 3.16 µM, first compound 0.000316 µM): 89%; viability, T/C (second compound 3.16 µM, first compound 0.001 µM): 76%; viability, T/C [37]: 42.9%; viability, T/C [38]: 16%; viability, T/C (second compound 10 µM, first compound 0.000316 µM): 0.23%; viability, T/C (second compound 10 µM, first compound 0.001 µM): 0.23%; viability, T/C [39]: 0.19%; viability, T/C [40]: 0.16%
3 | CC1(C)CCC(CN2CCN(c3ccc(C(=O)NS(=O)(=O)c4ccc(NCC5CCOCC5)c([N+](=O)[O-])c4)c(Oc4cnc5[nH]ccc5c4)c3)CC2)=C(c2ccc(Cl)cc2)C1 + CNCc1ccccc1-c1csc(C(C)Nc2nc(C)nc3cc(OC)c(OC)cc23)c1 | 1820 | 1680 | 1910 | 1430 | < 31.6 | 94.5 | 94.2 | 86.2 | 87.8 | 83 | 91.8 | 92.5 | 81.2 | 106 | 104 | 99.2 | 104 | 102 | 0.23 | 0.28 | viability, T/C [5]: 14.9%; viability, T/C [6]: 5.18%; viability, T/C [11]: 12%; viability, T/C [12]: 2.51%; viability, T/C [16]: 94.8%; viability, T/C [17]: 15.3%; viability, T/C [18]: 1.65%; viability, T/C [21]: 98.7%; viability, T/C [22]: 71.3%; viability, T/C [23]: 1.61%; viability, T/C [24]: 1.05%; viability, T/C [27]: 0.27%; viability, T/C [28]: 0.19%; viability, T/C [29]: 0.14%; viability, T/C [30]: 0.18%
4 | CC1COCCN1c1cc(-c2ccnn2C)c2ccnc(-c3ccn[nH]3)c2n1 (stereo not given) + CNCc1ccccc1-c1csc(C(C)Nc2nc(C)nc3cc(OC)c(OC)cc23)c1 | 20.7 | 21.4 | 22.3 | 12.8 | < 10 | 37.6 | 22.5 | 20.1 | 18.2 | 35.8 | 20.4 | 19 | 16.1 | 34.3 | 17.9 | 17.2 | 24.2 | 5.14 | 0.13 | 0.13 | viability, T/C [32]: 71.4%; viability, T/C [5]: 17.9%; viability, T/C [34]: 77.8%; viability, T/C [11]: 17.1%; viability, T/C [36]: 85.8%; viability, T/C [16]: 14.9%; viability, T/C [17]: 16.1%; viability, T/C [38]: 57.1%; viability, T/C [21]: 4.3%; viability, T/C [22]: 7.85%; viability, T/C [23]: 8.8%; viability, T/C [40]: 0.18%; viability, T/C [27]: 0.12%; viability, T/C [28]: 0.25%; viability, T/C [29]: 0.19%
5 | CCN1CCN(Cc2ccc(Nc3ncc(F)c(-c4cc(F)c5nc(C)n(C(C)C)c5c4)n3)nc2)CC1 + CNCc1ccccc1-c1csc(C(C)Nc2nc(C)nc3cc(OC)c(OC)cc23)c1 | > 1000 | > 1000 | > 1000 | 127 | < 3.16 | 59.8 | 47 | 51.5 | 59.7 | 65.7 | 56 | 53 | 56 | 72.6 | 71.8 | 61.8 | 68.4 | 53.4 | 0.18 | 0.16 | viability, T/C [31]: 91.5%; viability, T/C [32]: 85.2%; viability, T/C [33]: 97.3%; viability, T/C [34]: 93.3%; viability, T/C [35]: 94.2%; viability, T/C [36]: 92.8%; viability, T/C [16]: 57.7%; viability, T/C [37]: 80%; viability, T/C [38]: 79.2%; viability, T/C [21]: 33%; viability, T/C [22]: 1.27%; viability, T/C [39]: 0.23%; viability, T/C [40]: 0.23%; viability, T/C [27]: 0.16%; viability, T/C [28]: 0.18%
6 | CCNC(=O)CC1N=C(c2ccc(Cl)cc2)c2cc(OC)ccc2-n2c(C)nnc21 (stereo not given) + CNCc1ccccc1-c1csc(C(C)Nc2nc(C)nc3cc(OC)c(OC)cc23)c1 | 370 | 332 | 466 | 436 | < 31.6 | 94.1 | 75.7 | 51.9 | 38.5 | 87.2 | 77.7 | 50.3 | 36.4 | 94.8 | 80.2 | 54.8 | 98.9 | 80.7 | 0.5 | 0.19 | viability, T/C [5]: 33.7%; viability, T/C [6]: 33.5%; viability, T/C [11]: 34.5%; viability, T/C [12]: 31.6%; viability, T/C [16]: 40.1%; viability, T/C [17]: 34.2%; viability, T/C [18]: 32.4%; viability, T/C [21]: 55.4%; viability, T/C [22]: 36.3%; viability, T/C [23]: 26.2%; viability, T/C [24]: 24.1%; viability, T/C [27]: 0.17%; viability, T/C [28]: 0.15%; viability, T/C [29]: 0.21%; viability, T/C [30]: 0.3%
